Each structure is given as a SMILES string.

In the test the target is SARS-CoV-2 main protease (M^pro; NSP5; 3CL M^pro) (Severe acute respiratory syndrome coronavirus 2, UniProt P0DTD1). Description: biochemical. The following applies: read-out: % Residual activity at 20 µM.
`Cc1ccccc1CC(=O)NC(Cc1ccccc1)c1nc2ccccc2[nH]1` (stereo not drawn) [MCULE-2322094178]: the remaining activity at 20 µM is 83%.
As for `COc1ccc(-c2[nH]ncc2CNCc2ccccc2C)cc1` [MCULE-5715268546], the figure is 83%; as for `O=C(NC(Cc1ccccc1)c1nc2ccccc2[nH]1)c1cccc(F)c1` (stereo not drawn) [MCULE-6499664919], 83%.

These data come from doi:10.1101/2021.03.27.437323v2 (biorxiv, 2021).
